Patent publication US20210290680A1, “METHODS AND COMPOSITIONS FOR MODULATING CELLULAR AGING” (Dorian Therapeutics, Inc., priority 2019, published 2021)

What was measured:
[1] = tested on: activated primary T cells; assay: Navitoclax-induced cell death (Sytox-negative cell count after 72 hours); type: cell-based, human; settings: Younger T cells (day 12) compared with Older T cells (day 24)
Description: Activated primary T cells were treated with the indicated amount of Navitoclax. Navitoclax is a senolytic drug selectively targeting senescent cells (Zhu et al., Aging Cell, 2016). After 72 hours, Sytox-negative T cells were counted by flow cytometry using MACSQuant (Myltenyi Biotec). […] In each experiment two different primary T cell cultures were tested for each condition (four replicas for each condition). DMSO is a negative control. Navitoclax (cat #HY-10087) was purchased from MCE. Primary T cells were activated as described (Example 3) and transduced with a lentivirus encoding either a shUSP16 or a non-targeting shRNA (shC). T cells were then treated with the indicated amount of Navitoclax. After 72 hours, Sytox-negative GFP+ cells were counted, and the numbers of dead cells were calculated as 100%−(#treated/#untreated) cells. Two different time points were tested (day 12, day 22) with two different primary T cell cultures (four replicas per each condition).

primary T cells = assay: Stem cell memory T cell phenotype by flow cytometry (CD45RA+CD62L+); type: cell-based, human; settings: CRISPR knockout, day 15 post-activation
Description: Primary T cells were activated as described (Example 3), transduced with a lentivirus encoding for either a shUSP16 or a non-targeting shRNA (Ctrl) and sorted for GFP on day 8. Cells were cultured in the presence of IL-2 and their phenotype was analyzed at day 20. Cells were stained for CD4-PerCP-5.5 or CD8-BV510, CD62L-Allophycocyanin, CD45RA-BV510 or PE-Cy7 (Biolegend). Naïve or stem cell memory T cells (TNa/SCM) were identified as Sytox^− GFP^+CD45RA^+CD62L^+. Number of TNa/SCM was calculated as (#CD4 or CD8 T cells*TNa/SCMpercentage)/100. Flow cytometry was performed on the MACQuant (Myltenyi Biotec) and the data analyzed with FlowJo (shCtrl vs shUSP CD4: 0.4978 vs 0.7915, p=0.0673 and CD8: 2.469 vs 4.984, p=0.00392, n=7). Downregulation of USP16 expression increases the number of CD4+CD45RA+CD62L+(FIG. 11A) and CD8+CD45RA+CD62L+(FIG. 11B) cells in culture by 1.7 (p=0.0205) and 1.9 (p=0.0097) times, respectively.
Primary T cells were activated as described (Example 3), transduced with a lentivirus encoding either a shUSP16 #1, shUSP16 #2 or a non-targeting shRNA (shCtrl) and cells were selected with puromycin at day 6. At day 15 cell were collected and analyzed by qPCR for the expression of LEF1 (FIG. 16A) and TCF7 (FIG. 16B), downstream regulators of the WNT pathway. At day 20, cells were stained for CD4-PE, CD8-BV510, CD62L-Allophycocyanin and CD45RA-APC-Cy7 (Biolegend). Stem cell memory T cells (Tscm) were identified as Sytox^− GFP^+CD45RA^+CD62L^+, central memory T cells (Tcm) as Sytox^−GFP^+CD45RA^−CD62L^+, effector memory T cells (Tem) as Sytox^−GFP^+CD45RA^−CD62L^−, and terminal effector T cell (Teff) as Sytox^−GFP^+CD45RA^+CD62L^− (FIG. 17A). Cells were gated on the CD8 population. The specific increase of Tscm was shown as phenotype ratio (FIG. 17B).
Primary T cells were activated as described (Example 3). At Day 6 post-activation, dynabeads were removed and T cells electroporated using the Neon Transfection System (ThermoFisher) with a 2.5:1 ratio sgRNA:Cas9. The experiment was performed following the protocol optimized for primary T cell by Synthego (CRISPR Editing Human Primary CD4+ T cells with RNPs using Neon Electroporation Protocol, 2018 version). The sgRNA used are the following: gUSP16 #1 5′-[…]-3′ (SEQ ID NO: 10) and gSynthego that comprises 3 different sgRNAs (gRNA-A: 5′-[…] 3′ (SEQ ID NO: 11); gRNA-B: 5′-[…]-3′ (SEQ ID NO: 12); gRNA-C: 5′-[…]-3′ (SEQ ID NO: 13)). Control T cells, identified as Mock, were electroporated but no Cas9:sgRNA mixture was added. […] At day 15 post-activation, cells were stained for CD4-PE, CD8-BV510, CD62L-Allophycocyanin and CD45RA-APC-Cy7 (Biolegend). Stem cell memory T cells (Tscm) were identified as Sytox^−GFP^+CD45RA^+CD62L^+ and graphed as ratio compared to mock cells (FIG. 22). The experiment was repeated using primary T cells obtained from buffy coats of 2 different healthy donors.
Primary T cells were activated as described (Example 3), transduced with a lentivirus encoding for either a CD19.CAR or a GD2.CAR co-expressing shUSP16 #1, shUSP16 #2 or a scrambled shRNA (Control). At day 15, GD2.CAR and CD19.CAR T cells were stained for EGFR-AF488 (R&D), CD3-PE, CD8-BV510, CD62L-Allophycocyanin and CD45RA-APC-Cy7 (Biolegend). Stem cell memory T cells (Tscm) were identified as FITC^+CD45RA^+CD62L^+, central memory T cells (Tcm) as FITC^+CD45RA^−CD62L^+, effector memory T cells (Tem) as FITC^+CD45RA^−CD62L^−, and terminal effector T cell (Teff) as FITC^+CD45RA^+CD62L^−. Cells were gated on the CD8 population. The specific increase of Tscm was shown as phenotype ratio (FIGS. 28A and 28B).

## CC1(C)CCC(c2ccc(Cl)cc2)=C(CN2CCN(c3ccc(C(=O)NS(=O)(=O)c4ccc(N[C@H](CCN5CCOCC5)CSc5ccccc5)c(S(=O)(=O)C(F)(F)F)c4)cc3)CC2)C1 [Navitoclax]
[1]
  sensitivity to Navitoclax-induced cell death: less sensitive

## gUSP16 #1: sgRNA 5′-UGGCGUCAGAUAGUGCUUCA-3′ (SEQ ID NO: 10), electroporated with Cas9 (listed as RNA, chemistry not given here)
Primary T cells
  stem cell memory T cells, ratio compared to mock cells: 1.178

## gSynthego: comprises 3 different sgRNAs (gRNA-A, gRNA-B, gRNA-C; SEQ ID NO: 11-13), electroporated with Cas9 (guide 1 GUGUGCAGACACAUUAGAAA; guide 2 UAUUGUCAGUCUUACAGUCU; guide 3 GUUUGGCUGUGUCUUAAAUG; listed as RNA, chemistry not given here)
Primary T cells
  stem cell memory T cells, ratio compared to mock cells: 1.49
